Patent US9072306B2, “Method for the pre- or post-harvest treatment of plant products, using phosphonic acid and an essential oil” (priority 2010, dated 2015)

Key:
[1] = tested on: Colletotrichum gloeosporioides; assay: Treatment of olive trees affected by Colletotrichum gloeosporioides; assay type: in vivo; conditions: for Percentage of olive leaves with symptoms of infection: dose 0.5% of potassium sesquiphosphite composition alone
From the text: A composition at about 20% of clove oil and a composition of the potassium salt of phosphonic acid were separately applied at doses of 0.3% and 0.5% respectively, as well as in combination with the same doses.

Helminthosporium solani = assay: Viability of Helminthosporium solani propagules on treated potato tubers in storage
Description: (§1) The efficacy of combinations of essential oils and potassium salt of phosphonic acid (potassium sesquiphosphite) to reduce the viability of fungal infection and diseases in potatoes during storage was measured in the following manner: the tubers were collected. 500 tubers were selected for their average infection of Rhizoctonia (variety Nicola Bio); Helminthosporium solani (variety Vivaldi traditional). The tubers were incubated at 15° C. for 45 days to allow the development of symptoms. 50 tubers (6 to 8 kg) were treated with a composition of essential oil (at 570 ppm or 1140 ppm), a composition of potassium salt of phosphonic acid at 0.6% or 1.2% by weight, as well as mixtures thereof. The phosphonic acid solution was sprayed at ambient temperature at an application rate of 75 mL per 5 kg. 50 mL of clove oil solution were sprayed out. The tubers were incubated at 8° C. for 45 days after treatment. The viability of colonies of Rhizoctonia and Helminthosporium was monitored.

Geotrichum sp = assay: Efficacy against Geotrichum sp on inoculated citrus (mandarin ortanique); assay type: in vivo; conditions: K-Phos 500 ml/100 L (375 g/100 L potassium sesquiphosphite), spraying at ambient temperature
Description: The fruits were inoculated with a suspension of spores of Geotrichum sp after perforation of the skin. […] When clove oil alone was applied, the fruits were immersed for 2 min in a bath at a temperature of between 49° C. and 51° C. The fruits were stored. At various time intervals, the fruits were individually inspected for signs of phytotoxicity and efficacy by determining the percentage of the surface of the skin affected and the stage of development of the disease in the controls. The variables studied were the incidence (percentage of fruit affected) and severity of the attack (percentage of the fruit surface affected by the disease).

Rhizoctonia = assay: Viability of Rhizoctonia propagules on treated potato tubers in storage
Description: as §1

Penicilliums = conditions: ambient temperature, treatment doses close to 10,000 ppm, oranges; cited from earlier work
[2] = tested on: Colletotrichum gloeosporioides; conditions: in vivo; cited from earlier work
[3] = 0.6% potassium sesquiphosphite alone, potato tubers sprayed at ambient temperature, 45 days at 8° C. after treatment
[4] = 1.2% potassium sesquiphosphite alone, potato tubers sprayed at ambient temperature, 45 days at 8° C. after treatment
[5] = 570 ppm oil/terpene alone, potato tubers sprayed, 45 days at 8° C. after treatment

## potassium sesquiphosphite
[1]; t1 + 90 days
  Percentage of olive leaves with symptoms of infection: 50%
[1]; t1
  Percentage of olive leaves with symptoms of infection: 41%
Helminthosporium solani; [3]
  Viability of Propagules (%) Helminthosporium solani: 30%
Helminthosporium solani; [4]
  Viability of Propagules (%) Helminthosporium solani: 6%
Geotrichum sp
  Percentage of fruit affected after 14 days, value in parentheses (activity compared to the control): no activity
Rhizoctonia; [3]
  Viability of Propagules (%) Rhizoctonia: 60%
Rhizoctonia; [4]
  Viability of Propagules (%) Rhizoctonia: 22%

## Cc1ccc(C(C)C)cc1O [carvacrol]
Helminthosporium solani; [5]
  Viability of Propagules (%) Helminthosporium solani: 50%
Rhizoctonia; [5]
  Viability of Propagules (%) Rhizoctonia: 52%

## O=[PH](O)O [phosphonic acid, Phosphonic acid]
Penicilliums
  activity on Penicilliums: very weak
[1]; applied alone
  activity compared to the control (olive leaf infection): low level of activity
Helminthosporium solani; applied alone
  control of the growth of Helminthosporium solani: altogether insufficient degree
Rhizoctonia; applied alone
  control of the growth of Rhizoctonia: altogether insufficient degree

## CC(C)=CCC/C(C)=C/CO [geraniol]
Helminthosporium solani; [5]
  Viability of Propagules (%) Helminthosporium solani: 38%
Rhizoctonia; [5]
  Viability of Propagules (%) Rhizoctonia: 83%

## Cc1ccc(C(C)C)c(O)c1 [thymol]
Helminthosporium solani; Helminthosporium solani, in vivo, 45 days, 570 ppm
  Viability of Propagules (%) Helminthosporium solani: 45%
Rhizoctonia; Rhizoctonia, in vivo, 45 days, 570 ppm
  Viability of Propagules (%) Rhizoctonia: 75%

## O=C1C2CC=CCC2C(=O)N1SC(Cl)(Cl)Cl (stereo not drawn) [Captan]
[2]
  activity in control of the disease in olive orchards: low level of activity
